Measured values published in patent US9096560B2, “5-heterocyclylalkyl-3-hydroxy-2-phenylcyclopent-2-enones as herbicides” (Syngenta Limited, priority 2008, dated 2015).

How the values were obtained:
Format in all cases: in vivo
[1] = system: Lolium perenne (LOLPE); assay: Example B pre-emergence herbicidal test, LOLPE; details: Lolium perenne, 312 h, rate 250 g/ha, evaluated after 13 days, 100=total damage to plant, 0=no damage to plant
Outline: (§1)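 Pre-emergence spray one day after sowing; vehicle acetone/water (50:50), 0.5% Tween 20. Percent damage (0 = no effect, 100 = plant killed) recorded 13 days later.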

[2] = system: Alopecurus myosuroides (ALOMY); assay: Example B pre-emergence herbicidal test, ALOMY; details: Alopecurus myosuroides, 312 h, rate 250 g/ha, evaluated after 13 days, 100=total damage to plant, 0=no damage to plant
Outline: as §1

[3] = system: Echinochloa crus-galli (ECHCG); assay: Example B pre-emergence herbicidal test, ECHCG; details: Echinochloa crus-galli, 312 h, rate 250 g/ha, evaluated after 13 days, 100=total damage to plant, 0=no damage to plant
Outline: as §1

[4] = system: Avena fatua (AVEFA); assay: Example B pre-emergence herbicidal test, AVEFA; details: Avena fatua, 312 h, rate 250 g/ha, evaluated after 13 days, 100=total damage to plant, 0=no damage to plant
Outline: as §1

[5] = system: Lolium perenne (LOLPE); assay: Example B post-emergence herbicidal test, LOLPE; details: Lolium perenne, 312 h, rate 250 g/ha, evaluated after 13 days, scale 0-100, read-out: Post-emergence activity LOLPE (100=total damage to plant; 0=no damage to plant)
Outline: (§2)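 Plants grown 8 days in glasshouse (24/16 °C day/night, 14 h light, 65% humidity), then sprayed with aqueous solution from acetone/water (50:50) formulation with 0.5% Tween 20. Damage scored 13 days later on a 0–100 scale (100 = total damage).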

[6] = system: Alopecurus myosuroides (ALOMY); assay: Example B post-emergence herbicidal test, ALOMY; details: Alopecurus myosuroides, 312 h, rate 250 g/ha, evaluated after 13 days, scale 0-100, read-out: Post-emergence activity ALOMY (100=total damage to plant; 0=no damage to plant)
Outline: as §2

[7] = system: Echinochloa crus-galli (ECHCG); assay: Example B post-emergence herbicidal test, ECHCG; details: Echinochloa crus-galli, 312 h, rate 250 g/ha, evaluated after 13 days, scale 0-100, read-out: Post-emergence activity ECHCG (100=total damage to plant; 0=no damage to plant)
Outline: as §2

[8] = system: Avena fatua (AVEFA); assay: Example B post-emergence herbicidal test, AVEFA; details: Avena fatua, 312 h, rate 250 g/ha, evaluated after 13 days, scale 0-100, read-out: Post-emergence activity AVEFA (100=total damage to plant; 0=no damage to plant)
Outline: as §2

[9] = system: Winter Wheat variety 'Hereward'; assay: Example C crop damage test on Winter Wheat, post-emergence, no safener; details: Triticum aestivum, 312 h, rate 250 g/ha, evaluated after 13 days, read-out: Winter Wheat (Hereward) damage (100=total damage to plant; 0=no damage to plant)
Protocol: Seeds of the Winter Wheat variety ‘Hereward’ were sown in standard soil in pots. After 8 days cultivation under controlled conditions in a glasshouse (at 24/16° C., day/night; 14 hours light; 65% humidity), the plants were sprayed with an aqueous spray solution derived from the formulation of the technical active ingredient in acetone/water (50:50) solution containing 0.5% Tween 20 (polyoxyethelyene sorbitan monolaurate, CAS RN 9005-64-5). The test plants were then grown in a glasshouse under controlled conditions in a glasshouse (at 24/16° C., day/night; 14 hours light; 65% humidity) and watered twice daily. After 13 days for pre and post-emergence, the test was evaluated (100=total damage to plant; 0=no damage to plant).

[10] = system: Winter Wheat variety 'Hereward' seed treated with cloquintocet mexyl; assay: Example C crop damage test on Winter Wheat seed treated with safener cloquintocet mexyl, post-emergence; details: rate 250 g/ha, seed treated with cloquintocet mexyl 0.5 grams per kilogram of dry seed, evaluated after 13 days
Protocol: Seeds of the Winter Wheat variety ‘Hereward’ were seed treated with a wettable powder formulation of the cereal herbicide safener, cloquintocet mexyl, at a rate of 0.5 grams per kilogram of dry seed prior to the initiation of glasshouse testing. One seed was sown per 1.5 inch plastic pot into a sandy loam soil at a depth of 1 cm, 8 days prior to application of the test compounds and was watered and grown under controlled conditions in a glasshouse (at 24/16° C., day/night; 14 hours light; 65% humidity). The plants were sprayed Post-emergence with an aqueous spray solution derived from the formulation of the technical active ingredient in acetone/water (50:50) solution containing 0.5% Tween 20 (polyoxyethelyene sorbitan monolaurate, CAS RN 9005-64-5). The test plants were then grown in a glasshouse under controlled conditions in a glasshouse (at 24/16° C., day/night; 14 hours light; 65% humidity) and watered twice daily. After 13 days for pre and post-emergence, the test was evaluated (100=total damage to plant; 0=no damage to plant).

| SMILES | pest or weed control at 250 g/ha [1] [%] | pest or weed control at 250 g/ha [2] [%] | pest or weed control at 250 g/ha [3] [%] | pest or weed control at 250 g/ha [4] [%] | pest or weed control at 250 g/ha [5] [%] | pest or weed control at 250 g/ha [6] [%] | pest or weed control at 250 g/ha [7] [%] | pest or weed control at 250 g/ha [8] [%] | crop damage to winter wheat at 250 g/ha [9] [%] | Winter Wheat (Hereward) + cloquintocet mexyl damage (100=total damage to plant; 0=no damage to plant) [10] |
| --- | --- | --- | --- | --- | --- | --- | --- | --- | --- | --- |
| Cc1cc(C)c(C2=C(OC(=O)C(C)(C)C)CC(CC3CCOC3)C2=O)c(C)c1 (stereo not drawn) [Compound P7] | 100 | 100 | 100 | 90 | 100 | 100 | 90 | 80 | 70 | 0 |
| Cc1cc(C)c(C2=C(OC(=O)C(C)(C)C)C/C(=C\C3CCOCC3)C2=O)c(C)c1 [Compound P11] | 100 | 100 | 100 | 100 | 100 | 90 | 100 | 90 | 80 | 70 |
| Cc1cc(C)c(C2=C(OC(=O)C(C)C)CC(CC3CCOC3)C2=O)c(C)c1 (stereo not drawn) [Compound P13] | 100 | 100 | 100 | 90 | 100 | 90 | 100 | 90 | 70 | 10 |
| CCCCCCC(=O)OC1=C(c2c(C)cc(C)cc2C)C(=O)C(CC2CCOC2)C1 (stereo not drawn) [Compound P16] | 100 | 100 | 100 | 90 | 100 | 100 | 100 | 100 | 70 | 0 |
| Cc1cc(C)c(C2=C(OC(=O)c3ccccc3)CC(CC3CCOC3)C2=O)c(C)c1 (stereo not drawn) [Compound P17] | 100 | 100 | 90 | 90 | 100 | 100 | 100 | 90 | 70 | 0 |
| CCCOC(=O)OC1=C(c2c(C)cc(C)cc2C)C(=O)C(CC2CCOC2)C1 (stereo not drawn) [Compound P20] | 100 | 100 | 80 | 90 | 100 | 100 | 100 | 90 | 40 | 0 |
| Cc1cc(C)c(C2=C(OC(=O)OC(C)C)CC(CC3CCOCC3)C2=O)c(C)c1 (stereo not drawn) [Compound P43] | 100 | 100 | 100 | 100 | 100 | 100 | 100 | 90 | 50 | 40 |
| Cc1cc(C)c(C2=C(OC(=O)c3ccccc3)CC(CC3CCOCC3)C2=O)c(C)c1 (stereo not drawn) [Compound P44] | 100 | 100 | 100 | 90 | 100 | 100 | 100 | 100 | 70 | 40 |
| Cc1cc(C)c(C2C(=O)CC(CC3CCOC3C)C2=O)c(C)c1 (stereo not drawn) [Compound T156] | 100 | 80 | 100 | 70 | 100 | 90 | 70 | 90 | – | – |
| Cc1cc(-c2ccc(C(F)(F)F)cc2)cc(C)c1C1C(=O)CC(CC2CCOC2)C1=O (stereo not drawn) [Compound T157] | 10 | 10 | 40 | 0 | 30 | 30 | 60 | 50 | – | – |
| Cc1cc(-c2ccc(F)cc2)cc(C)c1C1C(=O)CC(CC2CCOC2)C1=O (stereo not drawn) [Compound T158] | 90 | 80 | 100 | 70 | 100 | 100 | 100 | 100 | – | – |
| Cc1cc(-c2ccccc2)cc(C)c1C1C(=O)CC(CC2CCOC2)C1=O (stereo not drawn) [Compound T159] | 70 | 50 | 100 | 30 | 100 | 90 | 100 | 90 | – | – |
| Cc1cc(Br)cc(C)c1C1C(=O)CC(CC2CCOC2)C1=O (stereo not drawn) [Compound T160] | 90 | 30 | 70 | 40 | 100 | 40 | 70 | 60 | – | – |
| Cc1cc(C)c(C2C(=O)CC(CC3CCN(C(=O)C(F)(F)C(F)F)CC3)C2=O)c(C)c1 (stereo not drawn) [Compound T161] | 90 | 30 | 100 | 60 | 100 | 70 | 90 | 90 | – | – |
| Cc1cc(C)c(C2C(=O)CC(CC3CCN(C(=O)C(F)(F)F)C3)C2=O)c(C)c1 (stereo not drawn) [Compound T162] | 70 | 40 | 50 | 50 | 90 | 60 | 70 | 80 | – | – |
| Cc1cc(C)c(C2C(=O)CC(CC3CCN(C(=O)C(F)(F)F)CC3)C2=O)c(C)c1 (stereo not drawn) [Compound T163] | 80 | 50 | 60 | 60 | 100 | 90 | 90 | 100 | – | – |
